Experimental data: patent US20050004018A1, “Use of antitumoral compound in cancer therapy” (priority 2001, published 2005)

Legend:
cancer patients [1] = details: 1-hr intravenous infusion every 3 weeks; cited from earlier work
human progenitor cells = details: cited from earlier work
cancer patients [2] = test: phase II programme, 24 hour every 3 weeks schedule; format: in vivo, human
Method: Two schedules (24 hour every 3 weeks and 3 hour every 3 weeks) reached the phase II programme. The phase II programme confirmed the activity against soft tissue sarcoma and ovarian cancer. However, the recommended starting dose for the 3 hour schedule had to be reduced because of serious toxicity. The recommended dose for the 24 hour schedule was 1500 μg /m^2 and the recommended dose for the 3 hour schedule is at present 1300 μg/m^2.
The 3 hour every three weeks schedule has the signifcant advantage of being more confortable for the patient because it reduces the time being spent at the hospital for infusion and monitoring, in particular avoiding overnight stay.

[3] = 24 hour infusion, worst grade per patient
[4] = 24 h schedule every three weeks
[5] = Per patient (24 h), number (percent)

Which “maximum tolerated dose (MTD)” value (cancer patients [1]) does the source give for ecteinascidin 743 [ET-743] here?
The value was 1100 μg/m^2.

What about the “sensitivity of progenitor cells” value (human progenitor cells) of the same substance?
The value was “equal sensitivity of erythropoid and myeloid cells”.

And the “Alk Phosph, NCI-CTC Grade 1” value (cancer patients [2]; [3])?
Its value is 149 (46.7) Number of patients (%).

And the “Alk Phosph, NCI-CTC Grade 2” value (cancer patients [2]; [3])?
The value was 29 (9.1) Number of patients (%).

And the “Alk Phosph, NCI-CTC Grade 3” value (cancer patients [2]; [3])?
Its value is 6 (1.9) Number of patients (%).

And the “Bilirubin, NCI-CTC Grade 1” value (cancer patients [2]; [3])?
The value was 49 (15.3) Number of patients (%).

And the “Bilirubin, NCI-CTC Grade 2” value (cancer patients [2]; [3])?
Its value is 23 (6.9) Number of patients (%).

What about the “Bilirubin, NCI-CTC Grade 3” value (cancer patients [2]; [3]) of the same substance?
The value was 4 (1.3) Number of patients (%).

What about the “Gamma GT, NCI-CTC Grade 1” value (cancer patients [2]; [3]) of the same substance?
Its value is 25 (22.9) Number of patients (%).

What about the “Gamma GT, NCI-CTC Grade 2” value (cancer patients [2]; [3]) of the same substance?
The value was 29 (26.6) Number of patients (%).

What about the “Gamma GT, NCI-CTC Grade 3” value (cancer patients [2]; [3]) of the same substance?
Its value is 32 (29.4) Number of patients (%).

And the “Gamma GT, NCI-CTC Grade 4” value (cancer patients [2]; [3])?
The value was 2 (1.8) Number of patients (%).

What about the “Hemoglobin, NCI-CTC Grade 0-1” value (cancer patients [2]; [3]) of the same substance?
The value was 165 (51.6) Number of patients (%).

What about the “Hemoglobin, NCI-CTC Grade 2” value (cancer patients [2]; [3]) of the same substance?
Its value is 111 (34.7) Number of patients (%).

What about the “Hemoglobin, NCI-CTC Grade 3” value (cancer patients [2]; [3]) of the same substance?
The value was 33 (10.3) Number of patients (%).

What about the “Hemoglobin, NCI-CTC Grade 4” value (cancer patients [2]; [3]) of the same substance?
Its value is 11 (3.4) Number of patients (%).

And the “Neutrophils, NCI-CTC Grade 0-1” value (cancer patients [2]; [3])?
Its value is 103 (32.3) Number of patients (%).

And the “Neutrophils, NCI-CTC Grade 2” value (cancer patients [2]; [3])?
The value was 54 (16.9) Number of patients (%).

And the “Neutrophils, NCI-CTC Grade 3” value (cancer patients [2]; [3])?
The value was 92 (28.8) Number of patients (%).

What about the “Neutrophils, NCI-CTC Grade 4” value (cancer patients [2]; [3]) of the same substance?
Its value is 70 (21.9) Number of patients (%).

What about the “Platelets, NCI-CTC Grade 0-1” value (cancer patients [2]; [3]) of the same substance?
Its value is 260 (81.5) Number of patients (%).

And the “Platelets, NCI-CTC Grade 2” value (cancer patients [2]; [3])?
The value was 17 (5.3) Number of patients (%).

And the “Platelets, NCI-CTC Grade 3” value (cancer patients [2]; [3])?
The value was 35 (11.0) Number of patients (%).

And the “Platelets, NCI-CTC Grade 4” value (cancer patients [2]; [3])?
The value was 7 (2.2) Number of patients (%).

And the “SGOT/AST, NCI-CTC Grade 1” value (cancer patients [2]; [3])?
The value was 74 (23.2) Number of patients (%).

And the “SGOT/AST, NCI-CTC Grade 2” value (cancer patients [2]; [3])?
Its value is 88 (27.6) Number of patients (%).

What about the “SGOT/AST, NCI-CTC Grade 3” value (cancer patients [2]; [3]) of the same substance?
The value was 120 (37.6) Number of patients (%).

What about the “SGOT/AST, NCI-CTC Grade 4” value (cancer patients [2]; [3]) of the same substance?
The value was 16 (5.0) Number of patients (%).

What about the “SGPT/ALT, NCI-CTC Grade 1” value (cancer patients [2]; [3]) of the same substance?
The value was 62 (19.4) Number of patients (%).

And the “SGPT/ALT, NCI-CTC Grade 2” value (cancer patients [2]; [3])?
Its value is 83 (25.9) Number of patients (%).

And the “SGPT/ALT, NCI-CTC Grade 3” value (cancer patients [2]; [3])?
The value was 127 (39.7) Number of patients (%).

What about the “SGPT/ALT, NCI-CTC Grade 4” value (cancer patients [2]; [3]) of the same substance?
Its value is 30 (9.4) Number of patients (%).

And the recommended dose (cancer patients [2]; 24 hour schedule, phase II)?
Its recommended dose is 1500 μg /m^2.

And the “Grade 3-4 ALT” value (cancer patients [2]; [4])?
The value was 49.1%.

What about the “Grade 3-4 Bilirubin” value (cancer patients [2]; [4]) of the same substance?
Its value is 1.3%.

What about the “Grade 3-4 Creatinine” value (cancer patients [2]; [4]) of the same substance?
The value was 0.7%.

What about the “Grade 3-4 Creatinine Kinase” value (cancer patients [2]; [4]) of the same substance?
Its value is 2.2%.

And the “Grade 3-4 Hemoglobin” value (cancer patients [2]; [4])?
Its value is 13.7%.

And the “Grade 3-4 Neutrophils” value (cancer patients [2]; [4])?
Its value is 50.7%.

And the “Grade 3-4 Platelets” value (cancer patients [2]; [4])?
Its value is 13.2%.

What about the “Creatinine abnormalities, NCI-CTC Grade 1” value (cancer patients [2]; [5]) of the same substance?
The value was 76 (23.9).

And the “Creatinine abnormalities, NCI-CTC Grade 2” value (cancer patients [2]; [5])?
Its value is 19 (6.0).

And the “Creatinine abnormalities, NCI-CTC Grade 3” value (cancer patients [2]; [5])?
The value was 3 (0.9).

And the “Creatinine abnormalities, NCI-CTC Grade 4” value (cancer patients [2]; [5])?
Its value is 2 (0.6).

What about the “Grades 1-3 of bilirubin” value (cancer patients [2]; over 24 hours, % of patients) of the same substance?
Its value is 23.8%.

What about the alkaline phosphatase overall (cancer patients [2]; over 24 hours, % of patients) of the same substance?
The alkaline phosphatase overall was 57.7%.
